pIC50: −log10 of the molar value.
Molecular target: T1, USP7 (Homo sapiens, UniProt Q93009)
T1 construct: The USP7 construct was PCR amplified and cloned into a pFLAG-CMV-6a vector (Sigma-Aldrich) with an N-terminal FLAG tag; made in house; host or cells: HEK293T
Experiment: USP7 biochemical IC50 assay (fluorescence polarisation, TAMRA labelled peptide linked to ubiquitin via an iso-peptide bond)
Details: 30 min pre-incubation of enzyme and compound, read after 2 hr incubation at room temperature, read-out: IC50 range
Experimental: In Vitro USP7 Inhibition Assay
Expression and Purification of USP7
The USP7 construct was PCR amplified and cloned into a pFLAG-CMV-6a vector (Sigma-Aldrich) with an N-terminal FLAG tag. HEK293T cells were transfected with FLAG-USP7 using TransIT-LT1 transfection reagent (Mirus) according to the manufacturer's instructions. Cells were harvested 40 hours after transfection. […] The resin was washed two times with low salt buffer plus protease inhibitors (complete mini, Roche) and phosphatase inhibitors (PhosSTOP mini, Roche) and one time with high salt buffer (20 mM Tris, pH 7.5, 500 mM NaCl, 0.5 mM EDTA, 5 mM beta-mercaptoethanol, protease inhibitors (complete mini, Roche) and phosphatase inhibitors (PhosSTOP mini, Roche). To elute the bound USP7, elution buffer (10 mM Tris, pH 7.5, 150 mM NaCl, 0.5 mM EDTA, 10% glycerol, 0.5% NP40, 5 mM beta-mercaptoethanol, 0.15 mg/ml 3×FLAG peptide (Sigma-Aldrich)) was added to the resin and incubated at 4° C. for 2.5 hours rotating. The resin was centrifuged at 4000 rpm for 30 seconds, and the supernatant containing purified FLAG-USP7 was removed and stored at −80° C.
USP7 Biochemical IC50 Assay
A typical 8-point dilution series would be 100, 30, 10, 3, 1, 0.3, 0.1, 0.03 μM final. […] Either 1 μl of 50% DMSO or diluted compound was added to the plate. USP7 was diluted in reaction buffer (20 mM Tris, pH 7.5, 100 mM NaCl, 0.05% Tween 20, 0.5 mg/ml BSA, 5 mM—beta mercaptoethanol) to the equivalent of 0.0025 μl/well and 10 μl of diluted USP7 was added to the compound. Enzyme and compound were incubated for 30 min at room temp. Reactions were initiated by the addition of 50 nM of TAMRA labelled peptide linked to ubiquitin via an iso-peptide bond as fluorescence polarisation substrate. Reactions were read immediately after addition of substrate and following a 2 hr incubation at room temperature. Readings were performed on a Pherastar Plus (BMG Labtech). λ Excitation 540 nm; λ Emission 590 nm.

T1 sequence (Q93009 whole entry): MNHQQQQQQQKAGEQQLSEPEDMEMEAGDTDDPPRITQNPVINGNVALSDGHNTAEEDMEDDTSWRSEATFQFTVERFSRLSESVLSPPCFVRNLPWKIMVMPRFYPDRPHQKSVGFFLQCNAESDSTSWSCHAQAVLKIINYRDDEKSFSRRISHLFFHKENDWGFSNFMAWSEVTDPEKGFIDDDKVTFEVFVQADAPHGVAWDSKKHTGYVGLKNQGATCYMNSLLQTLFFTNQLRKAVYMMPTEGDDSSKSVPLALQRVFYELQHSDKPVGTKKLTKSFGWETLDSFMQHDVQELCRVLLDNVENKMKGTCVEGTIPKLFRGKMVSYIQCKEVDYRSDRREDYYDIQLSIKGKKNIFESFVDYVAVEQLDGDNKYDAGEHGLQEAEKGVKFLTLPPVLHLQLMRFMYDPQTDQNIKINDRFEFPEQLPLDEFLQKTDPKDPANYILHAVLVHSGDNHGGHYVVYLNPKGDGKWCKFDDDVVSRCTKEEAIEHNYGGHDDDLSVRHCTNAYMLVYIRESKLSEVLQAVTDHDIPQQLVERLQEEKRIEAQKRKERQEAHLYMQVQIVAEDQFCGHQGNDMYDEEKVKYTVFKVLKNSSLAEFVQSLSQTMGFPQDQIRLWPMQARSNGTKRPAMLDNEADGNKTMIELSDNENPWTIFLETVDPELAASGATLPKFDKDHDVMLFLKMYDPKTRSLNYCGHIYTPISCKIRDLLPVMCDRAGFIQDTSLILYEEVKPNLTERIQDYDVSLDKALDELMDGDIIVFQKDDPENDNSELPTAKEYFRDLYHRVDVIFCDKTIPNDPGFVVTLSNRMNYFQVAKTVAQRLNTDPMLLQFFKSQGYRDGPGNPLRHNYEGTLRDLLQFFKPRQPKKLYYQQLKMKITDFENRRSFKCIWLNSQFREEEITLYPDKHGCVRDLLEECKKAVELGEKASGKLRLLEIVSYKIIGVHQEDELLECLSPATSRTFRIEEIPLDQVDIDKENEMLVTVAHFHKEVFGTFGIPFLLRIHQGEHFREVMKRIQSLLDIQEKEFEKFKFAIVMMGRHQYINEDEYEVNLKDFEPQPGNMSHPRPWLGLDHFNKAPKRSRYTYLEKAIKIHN

pIC50 | Compound
5.00 to 6.00 | COc1ccc(C#N)c(-c2cc(NS(C)(=O)=O)cc3c2CN(C#N)C3)c1 [Example 245, N-(2-cyano-7-(2-cyano-5-methoxyphenyl)isoindolin-5-yl)methanesulfonamide]
5.00 to 6.00 | N#CN1Cc2cccc(-c3cccc4c3C(=O)NC4)c2C1 [Example 68, 3-oxo-[4,4′-biisoindoline]-2′-carbonitrile]
4.52 to 5.00 | COc1ccc(-c2nc3c(c(N4CCCC4)n2)CN(C#N)C3)cc1 [Example 130, 2-(4-methoxyphenyl)-4-(pyrrolidin-1-yl)-5,7-dihydro-6H-pyrrolo[3,4-c]pyrimidine-6-carbonitrile]
5.00 to 6.00 | CC(=O)Nc1nc2c(c(-c3ccc(F)cc3)n1)CN(C#N)C2 [Example 187, N-(6-cyano-4-(4-fluorophenyl)-6,7-dihydro-5H-pyrrolo[3,4-c]pyrimidin-2-yl)acetamide]
5.00 to 6.00 | CNC(=O)NCc1cc2c(c(-c3ccc(C#N)cc3C#N)c1)CN(C#N)C2 [Example 228, 1-((2-cyano-7-(2,4-dicyanophenyl)isoindolin-5-yl)methyl)-3-methylurea]
5.00 to 6.00 | N#Cc1ccc(-c2cc(NC3CCS(=O)(=O)CC3)cc3c2CN(C#N)C3)cc1 [Example 273, 4-(4-cyanophenyl)-6-((1,1-dioxidotetrahydro-2H-thiopyran-4-yl)amino)isoindoline-2-carbonitrile]
> 6.00 | CNC(=O)c1cc2c(c(-c3ccc(F)cc3)c1)CN(C#N)C2 [Example 240, 2-cyano-7-(4-fluorophenyl)-N-methylisoindoline-5-carboxamide]
> 6.00 | CC(C)N1CCOC(C(=O)Nc2cc3c(c(-c4ccccc4)c2)CN(C#N)C3)C1 (centres unmarked) [Example 55, N-(2-cyano-7-phenylisoindolin-5-yl)-4-isopropylmorpholine-2-carboxamide]
5.00 to 6.00 | CS(=O)(=O)NCc1cc2c(c(-c3ccc(C#N)cc3)c1)CN(C#N)C2 [Example 222, N-((2-cyano-7-(4-cyanophenyl)isoindolin-5-yl)methyl)methanesulfonamide]
5.00 to 6.00 | COCCc1cc2c(c(-c3ccc(C#N)cc3)c1)CN(C#N)C2 [Example 254, 4-(4-cyanophenyl)-6-(2-methoxyethyl)isoindoline-2-carbonitrile]
4.52 to 5.00 | N#CN1Cc2nc(N)nc(N3CCC(Oc4ccccc4)CC3)c2C1 [Example 207, 2-amino-4-(4-phenoxypiperidin-1-yl)-5,7-dihydro-6H-pyrrolo[3,4-d]pyrimidine-6-carbonitrile]
5.00 to 6.00 | N#Cc1ccc(-c2cccc3c2CN(C#N)C3)cc1 [Example 13, 4-(4-cyanophenyl)isoindoline-2-carbonitrile]
5.00 to 6.00 | CS(=O)(=O)CCc1cc2c(c(-c3ccccc3)c1)CN(C#N)C2 [Example 252, 6-(2-(methylsulfonyl)ethyl)-4-phenylisoindoline-2-carbonitrile]
4.00 to 4.52 | CN1CCC(c2cccc3c2CN(C#N)C3)CC1 [Example 14, 4-(1-methylpiperidin-4-yl)isoindoline-2-carbonitrile]
5.00 to 6.00 | CN1CCCC(C(=O)N(C)c2cc3c(c(-c4ccccc4)c2)CN(C#N)C3)C1 (centres unmarked) [Example 59, N-(2-cyano-7-phenylisoindolin-5-yl)-N,1-dimethylpiperidine-3-carboxamide]
5.00 to 6.00 | N#CN1Cc2cccc(-c3cnc4ccccc4c3)c2C1 [Example 8, 4-(quinolin-3-yl)isoindoline-2-carbonitrile]

pIC50 | Compound
5.00 to 6.00 | CNc1cc2c(c(-c3ccc(C#N)cc3)c1)CN(C#N)C2 [Example 269, 4-(4-cyanophenyl)-6-(methylamino)isoindoline-2-carbonitrile]
5.00 to 6.00 | N#Cc1ccc(-c2cc(C(=O)NC3CCOCC3)cc3c2CN(C#N)C3)cc1 [Example 238, 2-cyano-7-(4-cyanophenyl)-N-(tetrahydro-2H-pyran-4-yl)isoindoline-5-carboxamide]
5.00 to 6.00 | N#CN1Cc2nc(N[C@H]3CC[C@H](O)CC3)nc(-c3ccccc3)c2C1 [Example 110, 2-(((1R,4R)-4-hydroxycyclohexyl)amino)-4-phenyl-5H-pyrrolo[3,4-d]pyrimidine-6(7H)-carbonitrile]
> 6.00 | CN1CC(C(=O)Nc2cc3c(c(-c4ccccc4)c2)CN(C#N)C3)CCC1=O (centres unmarked) [Example 44, N-(2-cyano-7-phenylisoindolin-5-yl)-1-methyl-6-oxopiperidine-3-carboxamide]
> 6.00 | CN1CCCC(C(=O)Nc2cc3c(c(-c4ccccc4)c2)CN(C#N)C3)C1 (racemic) [Example 36, N-(2-cyano-7-phenylisoindolin-5-yl)-1-methylpiperidine-3-carboxamide]
5.00 to 6.00 | N#Cc1ccc(-c2cc(NCC(O)CO)cc3c2CN(C#N)C3)cc1 (centres unmarked) [Example 280, 4-(4-Cyanophenyl)-6-((2,3-dihydroxypropyl)amino)isoindoline-2-carbonitrile]
5.00 to 6.00 | CS(=O)(=O)Nc1cc2c(c(-c3ccccc3)c1)CN(C#N)C2 [Example 61, N-(2-cyano-7-phenylisoindolin-5-yl)methanesulfonamide]
5.00 to 6.00 | N#CN1Cc2cccc(NC(=O)c3ccc(=O)n(Cc4ccccc4)c3)c2C1 [Example 87, 1-benzyl-N-(2-cyanoisoindolin-4-yl)-6-oxo-1,6-dihydropyridine-3-carboxamide]
5.00 to 6.00 | N#CN1Cc2cccc(NC(=O)c3cccc(NC(=O)c4ccccc4)c3)c2C1 [Example 90, 3-benzamido-N-(2-cyanoisoindolin-4-yl)benzamide]
5.00 to 6.00 | N#Cc1ccc(-c2cc(C(=O)N3CCS(=O)(=O)CC3)cc3c2CN(C#N)C3)cc1 [Example 236, 4-(4-cyanophenyl)-6-(1,1-dioxidothiomorpholine-4-carbonyl)isoindoline-2-carbonitrile]
5.00 to 6.00 | N#Cc1ccc(N2CCCC2=O)cc1-c1cccc2c1CN(C#N)C2 [Example 299, 4-(2-cyano-5-(2-oxopyrrolidin-1-yl)phenyl)isoindoline-2-carbonitrile]
> 6.00 | N#Cc1ccc(-c2cc(NCC3CCOCC3)cc3c2CN(C#N)C3)cc1 [Example 275, 4-(4-cyanophenyl)-6-(((tetrahydro-2H-pyran-4-yl)methyl)amino)isoindoline-2-carbonitrile]
4.52 to 5.00 | Cc1ccccc1-c1nc2c(c(N3CCCC3C(N)=O)n1)CN(C#N)C2 (centres unmarked) [Example 143, 1-(6-cyano-2-(o-tolyl)-6,7-dihydro-5H-pyrrolo[3,4-d]pyrimidin-4-yl)pyrrolidine-2-carboxamide]
5.00 to 6.00 | Cn1nccc1CNc1nc2c(c(-c3cccc(N4CCCC4=O)c3)n1)CN(C#N)C2 [Example 290, 2-(((1-methyl-1H-pyrazol-5-yl)methyl)amino)-4-(3-(2-oxopyrrolidin-1-yl)phenyl)-5,7-dihydro-6H-pyrrolo[3,4-d]pyrimidine-6-carbonitrile]
5.00 to 6.00 | CN1CCN(c2ccc(-c3nc(NCCO)nc4c3CN(C#N)C4)cc2)CC1 [Example 212, 2-((2-hydroxyethyl)amino)-4-(4-(4-methylpiperazin-1-yl)phenyl)-5,7-dihydro-6H-pyrrolo[3,4-d]pyrimidine-6-carbonitrile]
5.00 to 6.00 | CN1CCCC(CN(C)c2nc3c(c(N4CCc5cccnc5C4)n2)CN(C#N)C3)C1 (centres unmarked) [Example 295, 4-(5,8-dihydro-1,7-naphthyridin-7(6H)-yl)-2-(methyl((1-methylpiperidin-3-yl)methyl)amino)-5,7-dihydro-6H-pyrrolo[3,4-d]pyrimidine-6-carbonitrile]
